{"source": "ChEMBL document CHEMBL1201862", "about": "“PubChem BioAssay data set” (2004)", "key": {"[1]": {"biological_target": "T1, Corticotropin-releasing factor receptor 2/Corticotropin-releasing factor-binding protein (Homo sapiens, UniProt P24387+Q13324)", "T1 sequence (Q13324 whole entry)": "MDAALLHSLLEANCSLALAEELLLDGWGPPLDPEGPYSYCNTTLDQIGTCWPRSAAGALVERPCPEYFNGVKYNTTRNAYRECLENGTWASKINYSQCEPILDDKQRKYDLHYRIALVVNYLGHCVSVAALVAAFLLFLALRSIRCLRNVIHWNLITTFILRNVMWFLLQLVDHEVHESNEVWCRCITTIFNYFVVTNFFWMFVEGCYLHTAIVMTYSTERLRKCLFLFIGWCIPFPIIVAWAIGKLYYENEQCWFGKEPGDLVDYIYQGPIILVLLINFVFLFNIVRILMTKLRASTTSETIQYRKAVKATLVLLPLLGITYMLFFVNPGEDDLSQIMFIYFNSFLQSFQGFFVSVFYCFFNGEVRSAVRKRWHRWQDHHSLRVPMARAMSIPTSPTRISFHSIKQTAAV", "T1 sequence (P24387 whole entry)": "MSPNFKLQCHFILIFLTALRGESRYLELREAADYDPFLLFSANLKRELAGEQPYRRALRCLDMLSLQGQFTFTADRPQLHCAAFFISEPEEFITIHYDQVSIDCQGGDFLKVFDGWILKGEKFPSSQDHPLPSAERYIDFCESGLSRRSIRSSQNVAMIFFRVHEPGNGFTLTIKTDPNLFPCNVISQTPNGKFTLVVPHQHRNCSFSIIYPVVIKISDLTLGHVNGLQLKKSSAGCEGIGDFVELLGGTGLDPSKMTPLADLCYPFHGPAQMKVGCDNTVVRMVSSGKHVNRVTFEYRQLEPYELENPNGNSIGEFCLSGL", "test": "Dose Response confirmation of uHTS hits for small molecule antagonists of the CRF-binding protein and CRF-R2 receptor complex.", "assay_type": "functional", "conditions": "read-out: IC50_Mean"}, "[2]": {"test": "blockers of CRF-binding protein–CRF-R2 complex – cell-based, uHTS hits, 384-well, dose response (AID 651639)", "assay_type": "functional, Homo sapiens", "conditions": "read-out: IC50_Mean"}, "[3]": {"biological_target": "T1, Corticotropin-releasing factor receptor 2/Corticotropin-releasing factor-binding protein", "test": "activators of CRF receptor 2 with binding protein – uHTS hits, confirmation (AID 602473)", "assay_type": "functional", "conditions": "read-out: EC50_Mean"}, "[4]": {"test": "activation of miR-122 Renilla sensor silencing – cell-based, Huh7 psiCHECK-miR122, Renilla luciferase, cherry-picked, dose response (AID 651956);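 further: huh7 hepatoma cells stably carrying a psiCHECK-2 miR-122 sensor plasmid; renilla luciferase signal reporting endogenous miR-122 activity after 48 h compound exposure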", "assay_type": "functional"}, "Beta Lactamase": {"biological_target": "Beta Lactamase (Pseudomonas aeruginosa, UniProt Q932Y6)", "sequence (Q932Y6 whole entry)": "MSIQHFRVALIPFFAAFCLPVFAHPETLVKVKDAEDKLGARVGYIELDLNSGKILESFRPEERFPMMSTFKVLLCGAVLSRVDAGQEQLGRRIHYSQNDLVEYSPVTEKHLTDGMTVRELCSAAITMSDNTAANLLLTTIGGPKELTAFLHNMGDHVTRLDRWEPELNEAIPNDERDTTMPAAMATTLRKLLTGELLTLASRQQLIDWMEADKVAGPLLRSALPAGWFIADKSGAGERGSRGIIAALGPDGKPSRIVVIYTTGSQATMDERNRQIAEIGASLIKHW", "test": "BLA reporter interference, concentration series – BLA reporter cells, FRET fluorescence, artefact control for TLR9-MyD88 binding inhibitor project, dose response (AID 588341)", "assay_type": "cell-based"}, "CHO": {"test_system": "CHO", "test": "CHO cell viability loss, potency – luminescence, cytotoxicity control for TLR9-MyD88 binding inhibitor project, dose response (AID 588339);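 further: CHO cells stably coexpressing TLR9 and MyD88 fusions from primary screen; compound exposure lasted 48 hours before viability readout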", "assay_type": "functional, cell-based, hamster", "conditions": "Cricetulus griseus"}, "H9c2": {"test_system": "H9c2", "test": "cells", "assay_type": "functional, cell-based", "conditions": "Rattus norvegicus, H9c2, Myocardium"}, "[5]": {"biological_target": "T2, Endoribonuclease toxin MazF (Escherichia coli K-12, UniProt P0AE70)", "T2 sequence (P0AE70 whole entry)": "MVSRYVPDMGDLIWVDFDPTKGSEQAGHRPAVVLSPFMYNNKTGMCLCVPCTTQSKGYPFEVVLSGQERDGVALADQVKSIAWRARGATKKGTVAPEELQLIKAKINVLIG", "test": "activation of MazEF endoribonuclease cleavage – biochemical, fluorescence, single-stranded RNA substrate, uHTS hits, dose response (AID 588481)", "assay_type": "functional"}, "[6]": {"biological_target": "T2, Endoribonuclease toxin MazF", "test": "substrate-only fluorescence increase artefacts – biochemical, single-stranded RNase substrate, counter-screen for MazEF activator project, dose response (AID 588502)", "assay_type": "functional"}, "[7]": {"biological_target": "T3, Methionyl-tRNA synthetase, putative (Trypanosoma brucei brucei, UniProt Q38C91)", "T3 sequence (Q38C91 whole entry)": "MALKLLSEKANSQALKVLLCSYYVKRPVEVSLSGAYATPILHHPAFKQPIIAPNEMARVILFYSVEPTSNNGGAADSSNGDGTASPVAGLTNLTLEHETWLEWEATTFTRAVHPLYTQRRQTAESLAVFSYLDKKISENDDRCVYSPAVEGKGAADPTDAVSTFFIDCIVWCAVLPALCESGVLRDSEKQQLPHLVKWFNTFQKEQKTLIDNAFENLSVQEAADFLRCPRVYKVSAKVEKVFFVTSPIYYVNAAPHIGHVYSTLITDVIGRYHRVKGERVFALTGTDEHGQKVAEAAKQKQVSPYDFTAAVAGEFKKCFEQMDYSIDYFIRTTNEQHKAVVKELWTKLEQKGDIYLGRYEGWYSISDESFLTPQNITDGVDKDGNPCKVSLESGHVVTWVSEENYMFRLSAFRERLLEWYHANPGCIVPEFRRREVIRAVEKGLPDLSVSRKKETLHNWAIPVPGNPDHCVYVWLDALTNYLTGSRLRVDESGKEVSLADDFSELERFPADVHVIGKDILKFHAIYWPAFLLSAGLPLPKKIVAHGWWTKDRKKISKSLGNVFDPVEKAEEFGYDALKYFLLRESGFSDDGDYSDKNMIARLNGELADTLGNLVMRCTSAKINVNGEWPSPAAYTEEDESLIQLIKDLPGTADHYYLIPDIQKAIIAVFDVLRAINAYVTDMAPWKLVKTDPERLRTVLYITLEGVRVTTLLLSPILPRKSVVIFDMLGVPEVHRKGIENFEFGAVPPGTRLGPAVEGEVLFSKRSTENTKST", "assay_type": "functional, Trypanosoma brucei brucei strain 927/4 GUTat10.1"}, "[8]": {"biological_target": "T3, Methionyl-tRNA synthetase, putative", "assay_type": "functional, Trypanosoma brucei brucei strain 927/4 GUTat10.1", "remark": "listed apart in the source"}, "[9]": {"test": "Counterscreen for inhibitors of Trypanosoma brucei methionyl tRNA synthetase (MetRS): Luminescence-based cell-based high throughput dose response assay to identify compounds that are cytotoxic to Jurkat human T lymphocyte cells.", "assay_type": "functional"}, "Protein Wnt-3a": {"biological_target": "Protein Wnt-3a (Mus musculus, UniProt P27467)", "sequence (P27467 whole entry)": "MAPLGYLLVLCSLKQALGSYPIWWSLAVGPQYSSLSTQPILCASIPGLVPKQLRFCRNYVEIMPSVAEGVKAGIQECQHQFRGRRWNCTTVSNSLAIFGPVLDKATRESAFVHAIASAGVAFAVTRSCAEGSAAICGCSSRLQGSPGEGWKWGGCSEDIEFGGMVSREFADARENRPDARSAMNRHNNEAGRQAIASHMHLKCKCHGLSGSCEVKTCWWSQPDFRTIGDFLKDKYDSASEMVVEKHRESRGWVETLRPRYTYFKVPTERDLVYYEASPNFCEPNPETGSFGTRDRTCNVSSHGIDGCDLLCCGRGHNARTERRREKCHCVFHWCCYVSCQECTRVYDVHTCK", "test": "antagonism of Wnt3a pathway luciferase reporter – Wnt-LIGHT cells, luminescence, selectivity assay for Gli-SUFU antagonist project, dose response (AID 651570);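 further: Wnt-LIGHT reporter cells stimulated with conditioned medium from Wnt3a-producing cells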", "assay_type": "functional", "conditions": "read-out: IC50_Mean"}, "[10]": {"test": "NIH3T3 cell viability loss – ATP luminescence, mouse fibroblasts, counter-screen, dose response (AID 2010);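 further: cells exposed to compound for about 90 hours before reading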", "assay_type": "functional, cell-based"}, "[11]": {"test": "Trypanosoma cruzi growth suppression in host cells – NIH3T3 host cells, beta-gal luminescence, confirmation (AID 2044);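 further: intracellular parasites grown in NIH/3T3 mouse fibroblasts as host cells; luminescent beta-galactosidase reporter signal from transgenic T. cruzi replicating inside host cells; inhibitors lower the luminescence signal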", "assay_type": "functional, cell-based"}, "Streptococcus": {"test_system": "Streptococcus", "test": "GAS UMAA2166 growth inhibition – luminescence, BacTiterGlo, counter-screen for streptokinase expression inhibitor project, dose response (AID 1915);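 further: potency for reduction of bacterial viability or growth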", "assay_type": "functional, organism-based"}, "Prothrombin": {"biological_target": "Prothrombin (Bos taurus, UniProt P00735)", "test": "thrombin protease inhibitors – biochemical, fluorescence polarization, uHTS hits, dose response (AID 602369)", "assay_type": "functional"}, "[12]": {"biological_target": "26S proteasome non-ATPase regulatory subunit 14 (Homo sapiens, UniProt O00487)", "sequence (O00487 whole entry)": "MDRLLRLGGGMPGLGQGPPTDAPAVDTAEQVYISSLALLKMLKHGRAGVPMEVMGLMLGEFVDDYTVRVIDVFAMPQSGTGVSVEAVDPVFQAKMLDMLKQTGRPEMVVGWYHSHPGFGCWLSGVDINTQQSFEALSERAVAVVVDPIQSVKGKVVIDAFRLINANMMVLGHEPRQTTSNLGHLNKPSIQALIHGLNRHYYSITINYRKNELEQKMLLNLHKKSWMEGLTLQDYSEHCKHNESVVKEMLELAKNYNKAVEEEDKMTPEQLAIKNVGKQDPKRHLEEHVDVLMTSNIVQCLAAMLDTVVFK", "test": "inhibition of proteasome subunit RPN11 – biochemical, fluorescence polarization, uHTS hits, confirmation (AID 602368)", "assay_type": "functional"}, "[13]": {"test_system": "Streptococcus sp. 'group A'", "test": "Streptococcus pyogenes SK(-)GAS viability under kanamycin – luminescence, BacTiterGlo, confirmation, counter-screen for streptokinase expression inhibitor project, dose response (AID 1900)", "assay_type": "functional, organism-based"}, "[14]": {"biological_target": "72 kDa type IV collagenase (Homo sapiens, UniProt P08253)", "sequence (P08253 whole entry)": "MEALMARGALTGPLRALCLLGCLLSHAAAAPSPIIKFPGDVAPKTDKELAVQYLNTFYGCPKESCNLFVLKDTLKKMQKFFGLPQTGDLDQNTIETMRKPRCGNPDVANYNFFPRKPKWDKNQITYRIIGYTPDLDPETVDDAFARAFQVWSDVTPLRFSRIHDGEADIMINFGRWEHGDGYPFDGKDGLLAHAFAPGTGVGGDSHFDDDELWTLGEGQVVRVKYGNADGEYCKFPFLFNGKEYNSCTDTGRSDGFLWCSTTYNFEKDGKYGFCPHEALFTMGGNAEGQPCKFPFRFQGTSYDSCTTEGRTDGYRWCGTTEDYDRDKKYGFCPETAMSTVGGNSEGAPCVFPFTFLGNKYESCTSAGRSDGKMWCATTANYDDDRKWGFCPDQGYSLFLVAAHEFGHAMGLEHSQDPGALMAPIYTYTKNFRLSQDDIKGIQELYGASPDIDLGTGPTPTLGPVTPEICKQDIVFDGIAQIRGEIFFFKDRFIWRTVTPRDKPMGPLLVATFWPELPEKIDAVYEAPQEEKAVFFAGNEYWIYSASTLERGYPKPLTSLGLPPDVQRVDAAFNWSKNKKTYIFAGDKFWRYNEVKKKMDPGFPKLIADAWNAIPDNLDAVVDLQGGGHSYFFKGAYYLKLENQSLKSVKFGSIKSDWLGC", "test": "Dose Response validation of uHTS RPN11 inhibitor hits using a MMP-2 Fluorescence assay.", "assay_type": "functional"}, "[15]": {"biological_target": "5-hydroxytryptamine receptor 2A (Mus musculus, UniProt P35363)", "sequence (P35363 whole entry)": "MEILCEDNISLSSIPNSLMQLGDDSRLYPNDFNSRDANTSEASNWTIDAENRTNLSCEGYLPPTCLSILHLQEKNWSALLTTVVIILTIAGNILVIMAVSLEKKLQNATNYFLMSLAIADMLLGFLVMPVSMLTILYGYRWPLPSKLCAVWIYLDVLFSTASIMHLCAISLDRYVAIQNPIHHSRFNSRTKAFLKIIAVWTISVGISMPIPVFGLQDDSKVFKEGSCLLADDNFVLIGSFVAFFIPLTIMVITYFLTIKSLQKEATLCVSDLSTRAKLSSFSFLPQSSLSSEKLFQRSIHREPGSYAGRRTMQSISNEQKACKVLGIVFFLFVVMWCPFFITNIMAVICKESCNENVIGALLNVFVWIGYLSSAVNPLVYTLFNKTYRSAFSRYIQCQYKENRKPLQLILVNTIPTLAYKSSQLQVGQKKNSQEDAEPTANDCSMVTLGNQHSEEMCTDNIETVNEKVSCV", "assay_type": "functional, cell-based"}, "Mu-type opioid receptor": {"biological_target": "Mu-type opioid receptor (Homo sapiens, UniProt P35372)", "sequence (P35372 whole entry)": "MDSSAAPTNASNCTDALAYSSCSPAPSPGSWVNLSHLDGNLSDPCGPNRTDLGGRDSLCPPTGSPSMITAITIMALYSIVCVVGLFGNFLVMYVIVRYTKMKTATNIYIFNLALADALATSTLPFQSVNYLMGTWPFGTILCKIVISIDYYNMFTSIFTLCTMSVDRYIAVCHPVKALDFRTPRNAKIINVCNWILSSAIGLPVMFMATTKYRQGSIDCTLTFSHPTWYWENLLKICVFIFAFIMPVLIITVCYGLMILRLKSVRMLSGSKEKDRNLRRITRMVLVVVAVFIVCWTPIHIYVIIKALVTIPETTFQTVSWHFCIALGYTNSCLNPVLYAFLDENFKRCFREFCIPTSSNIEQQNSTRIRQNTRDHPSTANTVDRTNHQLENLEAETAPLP", "assay_type": "functional, cell-based"}}, "note": "Calls of active or inactive are those of the source.", "data": [{"smiles": "Cc1noc(C)c1CSCc1ccc(Cl)cc1", "values": [{"measurement": "IC50", "setting": "[1]", "result": "35.6 µM (active)"}, {"measurement": "IC50", "setting": "[2]", "result": "> 20 µM (inactive)"}, {"measurement": "EC50", "setting": "[3]", "result": "> 53 µM (inactive)"}]}, {"smiles": "C[C@@H]1CN([C@@H](C)CO)S(=O)(=O)c2ccc(C3=CCCCC3)cc2O[C@@H]1CN(C)C(=O)Cc1ccncc1", "values": [{"measurement": "AC50", "setting": "[4]", "result": "6.22 µM (active)"}]}, {"smiles": "COc1cc2oc3cc(C#Cc4ccc(N)cc4)ccc3c(=O)c2cc1OC", "values": [{"measurement": "IC50", "setting": "Beta Lactamase", "result": "3.6 µM (active)"}, {"measurement": "IC50", "setting": "CHO", "result": "> 49.7 µM (inactive)"}, {"measurement": "IC50", "setting": "H9c2", "result": "> 79 µM (inactive)"}]}, {"smiles": "Cc1nc(SCC(=O)c2cc3ccccc3oc2=O)c(C#N)c(-c2cccs2)c1C(=O)Nc1ccccc1", "values": [{"measurement": "EC50", "setting": "[5]", "result": "> 99 µM (inactive)"}, {"measurement": "EC50", "setting": "[6]", "result": "> 99 µM (inactive)"}]}, {"smiles": "O=C(Cc1ccc(Br)cc1)Nc1cccc(S(=O)(=O)N2CCOCC2)c1", "values": [{"measurement": "IC50", "setting": "[7]", "result": "3.47 µM (active)"}, {"measurement": "IC50", "setting": "[8]", "result": "7 µM (active)"}, {"measurement": "IC50", "setting": "[9]", "result": "82.3 µM (inactive)"}]}, {"smiles": "CCOc1ccc(-n2c(-c3ccc(Cl)cc3)c[n+]3c2SCC3)cc1", "values": [{"measurement": "IC50", "setting": "Protein Wnt-3a", "result": "1.33 µM (active)"}, {"measurement": "EC50", "setting": "[10]", "result": "5.18 µM (active)"}, {"measurement": "EC50", "setting": "[11]", "result": "0.86 µM (active)"}]}, {"smiles": "CO/N=C(/C(=O)N[C@@H]1C(=O)N2C(C(=O)O)=CCS[C@H]12)c1cnc(N)s1", "values": [{"measurement": "EC50", "setting": "Streptococcus", "result": "< 0.06 µM (active)"}, {"measurement": "IC50", "setting": "Prothrombin", "result": "54.1 µM (active)"}, {"measurement": "IC50", "setting": "[12]", "result": "1.33 µM (active)"}, {"measurement": "EC50", "setting": "[13]", "result": "< 0.06 µM (active)"}, {"measurement": "IC50", "setting": "[14]", "result": "0.122 µM (active)"}]}, {"smiles": "CCN(CC)S(=O)(=O)c1cc(NC(=O)CN2CCN(c3ccccn3)CC2)ccc1C", "values": [{"measurement": "EC50", "setting": "[15]", "result": "0.761 µM (active)"}, {"measurement": "EC50", "setting": "Mu-type opioid receptor", "result": "92.5 µM (inactive)"}]}]}
